The conditions of series [1]: mice or rats; 500 mg/kg oral, 3000 mg/kg IM, 1500 mk/kg IV; cited from earlier work.
For the next series, the system named is SCC-25 cells. Briefly: Previously determined IC50 of celecoxib. The format is cell-based. The note with it: Homo sapiens, quantity inhibited not stated. The protocol: Benzo[a]pyrene (BaP), one of the compounds released from smoking, is a prototypical carcinogen. It is a polycyclic aromatic hydrocarbon (PAH) compound and is found in high quantity (20-40 ng) in each cigarette. BaP is metabolized and activated to become the ultimate carcinogenic metabolite [(+)-anti-7b,8a-dihydroxy-9a,10a-epoxy-7,8,9,10-tetrahydorbenzo[a]pyrene], also known as BPDE. […] We examined the counter-stimulatory effect of Scutellaria baicalensis on BaP-induced COX-2 activity. After the treating SCC-25 cells with BaP for 6 hours, the supernatants were removed and the cells were washed with PBS. […] This situation resembles the chemoprevention in the former smokers.

For series [2] the following is noted: following an oral dose; cited from earlier work.
The subject of another series is PGE2. The series is described as follows: PGE2 in articular fluid of rats with adjuvant arthritis (ELISA). The format is in vivo. Particulars: end of experiment, X ± SD, n = 6. The text has this:
(§1) Osteoarthritis is characterized by articular cartilage degradation and hypertrophic joint changes. Pro-inflammatory cytokines (IL-1, IL-6, TNF-α) are considered to play important roles in the initiation and development of osteoarthritis (Inoue et al. British Journal of Pharmacology 136:287-295 (2002)). Prostaglandin (PG) E2 has catabolic effects on the articular cartilage in OA (Futani et al J Immunother 2002 1;25(0):S61-S64). Therefore, we measured IL-6 and PGE2 in rats' blood with adjuvant-induced arthritis treated with Scutellaria baicalensis formula using ELISA assay. At the end of the experiment in Example 4.1, IL-6 in serum and PGE2 in articular fluid were assessed.
(In general: An ELISA detects its analyte on a solid surface through an enzyme-linked reagent.)

Series [3] can be described thus: Paw edema induced by Freund's complete adjuvant in rats. The format is in vivo, Wistar rats. Particulars: X ± SD, n = 6, oral gavage once per day. The protocol: The anti-arthritic activity of Scutellaria baicalensis formula was confirmed in animal study. Eight week-old male Wistar rats were received intradermal injections of 0.1 ml Freund's complete adjuvant (FCA, 7.5 mg/ml) to the paw of the right hindfood. At 14 days, paw edema was induced and rats were randomized into three groups (n=6) including control group, Scutellaria baicalensis formula group (30 mg/kg of Scutellaria baicalensis, 10 mg/kg of Glucosamine and 8 mg/kg of Chondroitin) and indomethacin group (12.5 mg/kg) which serves as a positive control. The treatment groups were given Scutellaria baicalensis formula or indomethacin by oral gavage once per day for a duration of 10 days. The diameters of paw were measured at 16, 20 and 24 days.

The subject of the next series is IL-6. The series is described as follows: IL-6 in serum of rats with adjuvant arthritis (ELISA). The format is in vivo. Particulars: end of experiment, X ± SD, n = 6.
Text: as §1

As a reminder, the IC50 is the concentration at which inhibition is half-maximal. Higher therefore signals weaker potency in that assay.

Regarding `N[C@H]1C(O)O[C@H](CO)[C@@H](O)[C@@H]1O.O=S(=O)(O)O` (some centres unmarked) [glucosamine sulfate], the mortality result in series [1] is reported as “No mortality”.
On to `Cc1ccc(-c2cc(C(F)(F)F)nn2-c2ccc(S(N)(=O)=O)cc2)cc1` [celecoxib], for which the midpoint of inhibition in the series with SCC-25 cells, the IC50, lay at 25 µM.
Take Chondroitin sulfate: the “tolerability / signs or symptoms of toxicity” value in series [2] was “well tolerated”.
Regarding `COc1ccc2c(c1)c(CC(=O)O)c(C)n2C(=O)c1ccc(Cl)cc1` [Indomethacin], the “PGE2” value with PGE2 is 6.00 ± 3.1 pg/mL. For the same molecule, the “changes of paw edema” value is reported as 0.929 ± 0.214 in series [3] (16 d), 0.771 ± 0.160 in series [3] (20 d) and 0.400 ± 0.245 in series [3] (24 d). Further, the “IL-6” value in the series on IL-6 turned out to be 6.0 ± 3.1 pg/mL.

The values are drawn from US20060165821A1, “Composition comprising scutellaria baicalensis and their uses thereof” (priority 2002, published 2006).
